Results on 27 molecules are retold here after patent US11459308B2 (priority 2016, dated 2022).

The IC50 is the concentration that gives 50% inhibition.

The subject of one data set is rVSV-EBOV GP. The data set can be described thus: microbe, parasite or virus in culture. It counts as cell-based, Zaire Ebolavirus. The following applies: Zaire ebolavirus, read-out: rVSV-EBOV IC50.
Another data set can be described thus: in vitro. Conditions: African green monkey.

Regarding `CN1CCN(c2ccc3[nH]c(=O)n(C(c4ccccc4)c4ccccc4)c3c2)CC1` [MBX 3526, 1-benzhydryl-6-(4-methylpiperazin-1-yl)-1H-benzo[d]imidazol-2(3H)-one], in the data set with rVSV-EBOV GP, the IC50 was 2.9 µM. In the data set “in vitro”, this molecule showed a CC50 of 26 µM.
`O=[N+]([O-])c1ccc(N2CCN(CCc3ccccc3)CC2)cc1NC(c1ccccc1)c1ccccc1` [MBX 3623, 2-benzhydrylamino-4-(4-phenethylpiperazin-1-yl)nitrobenzene]: the 50% inhibitory concentration (IC50) in the data set on rVSV-EBOV GP was more than 25 µM. In the data set “in vitro”, this molecule displayed a CC50 of more than 100 µM.
On the same counts, the results for `O=[N+]([O-])c1ccc(N2CCN(c3ccccc3)CC2)cc1NC(c1ccccc1)c1ccccc1` [MBX 3624, 2-benzhydrylamino-4-(4-phenylpiperazin-1-yl)nitrobenzene] are more than 25 µM and more than 100 µM.
Consider `COc1ccccc1C(Nc1cc(N2CCN(C)CC2)ccc1[N+](=O)[O-])c1ccccc1` (stereo not drawn) [MBX 3635, 2-[phenyl(2-methoxyphenyl)methylamino]-4-(4-methylpiperazin-1-yl)nitrobenzene], for which, in the data set on rVSV-EBOV GP, the IC50 amounted to 2.5 µM. Moreover, the CC50 in the data set “in vitro” worked out at 14 µM.
On the same counts, the results for `COc1cccc(C(Nc2cc(N3CCN(C)CC3)ccc2[N+](=O)[O-])c2ccccc2)c1` (stereo not drawn) [MBX 3641, 2-[(3-methoxyphenyl)(phenyl)methylamino]-4-(4-methylpiperazin-1-yl)nitrobenzene] are more than 25 µM and 26 µM.
On the same counts, the results for `COc1ccc(C(Nc2cc(N3CCN(C)CC3)ccc2[N+](=O)[O-])c2ccccc2)cc1` (stereo not drawn) [MBX 3642, 2-[(4-methoxyphenyl)(phenyl)methylamino]-4-(4-methylpiperazin-1-yl)nitrobenzene] are more than 25 µM and 33 µM.
In the same order, the values of `CN1CCN(c2ccc([N+](=O)[O-])c(NC(c3ccccc3)c3ccc(Cl)cc3)c2)CC1` (stereo not drawn) [MBX 3644, 2-[(4-chlorophenyl)(phenyl)methylamino]-4-(4-methylpiperazin-1-yl)nitrobenzene] are 1.4 µM and 18 µM.
Consider `CN1CCN(c2ccc([N+](=O)[O-])c(NC(c3ccccc3)c3ccccn3)c2)CC1` (stereo not drawn) [MBX 3647, 2-[(pyridin-2-yl)(phenyl)methylamino]-4-(4-methylpiperazin-1-yl)nitrobenzene], for which, in the data set on rVSV-EBOV GP, the IC50 is more than 25 µM. For the same molecule, in “in vitro”, the CC50 is more than 100 µM.
As to `CN1CCN(c2ccc([N+](=O)[O-])c(NC(c3ccccc3)c3cccnc3)c2)CC1` (stereo not drawn) [MBX 3648, 2-[(pyridin-3-yl)(phenyl)methylamino]-4-(4-methylpiperazin-1-yl)nitrobenzene], the IC50 in the data set on rVSV-EBOV GP was more than 25 µM. The molecule further came in with a CC50 in “in vitro” of 17 µM.
For the molecule `CN1CCN(c2ccc([N+](=O)[O-])c(NC(c3ccccc3)c3ccncc3)c2)CC1` (stereo not drawn) [MBX 3670, 2-[(pyridin-4-yl)(phenyl)methylamino]-4-(4-methylpiperazin-1-yl)nitrobenzene], the IC50 with rVSV-EBOV GP was 4.5 µM. For the same molecule, the CC50 in “in vitro” turned out to be 45 µM.
On the same counts, the results for `Cc1ccc(C(Nc2cc(N3CCN(C)CC3)ccc2[N+](=O)[O-])c2ccccc2)cc1` (stereo not drawn) [MBX 3687, 2-[(phenyl)(p-tolyl)methylamino]-4-(4-methylpiperazin-1-yl)nitrobenzene] are 2.2 µM and 16 µM.
On the same counts, the results for `CN1CCN(c2ccc([N+](=O)[O-])c(NC(c3ccccc3)c3ccccc3)c2)CC1=O` [MBX 3695, 2-benzhydrylamino-4-(4-methyl-3-oxopiperazin-1-yl)nitrobenzene] are 16 µM and more than 100 µM.
On the same counts, the results for `CCN(CC)c1ccc([N+](=O)[O-])c(NC(c2ccccc2)c2ccccc2)c1` [MBX 3696, 2-benzhydrylamino-4-(diethylamino)nitrobenzene] are more than 25 µM and more than 100 µM.
On to `O=[N+]([O-])c1ccc(N2CCSCC2)cc1NC(c1ccccc1)c1ccccc1` [MBX 3699, 2-benzhydrylamino-4-thiomorpholino-1-nitrobenzene], for which the IC50 in the data set on rVSV-EBOV GP is more than 25 µM. Further, the CC50 in the data set “in vitro” was more than 100 µM.
As for `CN1CCCN(c2ccc([N+](=O)[O-])c(NC(c3ccccc3)c3ccccc3)c2)CC1` [MBX 3700, 2-benzhydrylamino-4-(4-methyl-1,4-diazepan-1-yl)-1-nitrobenzene], the IC50 with rVSV-EBOV GP is less than 0.1 µM. In “in vitro”, this molecule gave a CC50 of 7.6 µM.
On the same counts, the results for `O=[N+]([O-])c1ccc(N2CCCCC2)cc1NC(c1ccccc1)c1ccccc1` [MBX 3702, 2-benzhydrylamino-4-(piperidin-1-yl)-1-nitrobenzene] are more than 25 µM and more than 100 µM.
On the same counts, the results for `CN1CCC(N(C)c2ccc([N+](=O)[O-])c(NC(c3ccccc3)c3ccccc3)c2)CC1` [MBX 3742, 2-(benzhydrylamino)-4-[methyl(1-methylpiperidin-4-yl)amino]-1-nitrobenzene] are 1.5 µM and 3.3 µM.
In the same order, the values of `O=[N+]([O-])c1ccc(N2CCC(N3CCCCC3)CC2)cc1NC(c1ccccc1)c1ccccc1` [MBX 3747, 2-(benzhydrylamino)-4-[(1,4′-bipiperidin)-1′-yl]-1-nitrobenzene] are 0.58 µM and 7.5 µM.
For the molecule `CN(C)C1CCN(c2ccc([N+](=O)[O-])c(NC(c3ccccc3)c3ccccc3)c2)CC1` [MBX 3749, 2-(benzhydrylamino)-4-[4-(dimethylamino)piperidin-1-yl]-1-nitrobenzene], in the data set on rVSV-EBOV GP, the IC50 stood at 0.7 µM. The same molecule showed a CC50 in “in vitro” of 7.7 µM.
On the same counts, the results for `CCOC(=O)CN1CCN(c2ccc([N+](=O)[O-])c(NC(c3ccccc3)c3ccccc3)c2)CC1` [MBX 3947, 2-(benzhydrylamino)-4-[4-(2-ethoxy-2-oxoethyl)piperazin-1-yl]-1-nitrobenzene] are 18 µM and more than 100 µM.
On the same counts, the results for `c1ccc(C(c2ccccc2)n2cnc3ccc(N4CCN5CCCCC5C4)cc32)cc1` (stereo not drawn) [MBX 4211, 2-(1-benzhydryl-1H-benzo[d]imidazol-6-yl)octahydro-1H-pyrido[1,2-a]pyrazine] are 2 µM and 195 µM.
In the same order, the values of `CN1CCN(c2ccc3ncn(C(C)(C)c4ccccc4)c3c2)CC1` [MBX 4213, 6-(4-methylpiperazin-1-yl)-1-(2-phenylpropan-2-yl)-1H-benzo[d]imidazole] are 200 µM and more than 200 µM.
In the case of `c1ccc(C(c2ccccc2)n2cnc3ccc(N4CCNCC4)nc32)cc1` [MBX 4214, 3-benzhydryl-5-(piperazin-1-yl)-3H-imidazo[4,5-b]pyridine], the IC50 in the data set on rVSV-EBOV GP was 3 µM. This molecule returned a CC50 in “in vitro” of 105 µM.
In the same order, the values of `c1ccc(C(c2ccccc2)n2cnc3cnc(N4CCNCC4)cc32)cc1` [MBX 4215A, 1-benzhydryl-6-(piperazin-1-yl)-1H-imidazo[4,5-c]pyridine bis(2,2,2-trifluoroacetate)] are 2.8 µM and 94 µM.
On the same counts, the results for `O=[N+]([O-])c1ccc(-c2ccncc2)cc1NC(c1ccccc1)c1ccccc1` [MBX 4277, N-benzhydryl-2-nitro-5-(pyridin-4-yl)aniline] are 14.6 µM and 40 µM.
On the same counts, the results for `c1ccc(C(c2ccccc2)n2cnc3ccc(-c4ccncc4)cc32)cc1` [MBX 4278, 1-benzhydryl-6-(pyridin-4-yl)-1H-benzo[d]imidazole] are 8.98 µM and 4.2 µM.
Take `O=[N+]([O-])c1ccc(-c2cccnc2)cc1NC(c1ccccc1)c1ccccc1` [MBX 4279, N-benzhydryl-2-nitro-5-(pyridin-3-yl)aniline]: the 50% inhibitory concentration (IC50) in the data set with rVSV-EBOV GP amounted to 12.4 µM. For the same molecule, the CC50 in “in vitro” was found to be 49 µM.
